PMC2074379 (British Journal of Cancer, 1996)

Tested on: serine carboxypeptidase
Assay: Effect of PMSF on the in vitro metabolism of antagonist D in 2% mouse liver homogenate
Format: biochemical
Conditions: antagonist D 100 µg in 1.0 ml 2% w/v mouse liver homogenate in PBS, 37°C; PMSF 0-2.5 mM preincubated 15 min at 23°C; HPLC; mean of two to four experiments
Description: British Journal of Cancer (1996) 73, 715-720 ? 1996 Stockton Press All rights reserved 0007-0920/96 $12.00 % Metabolism of the broad-spectrum neuropeptide growth factor antagonist: ID-Arg1, D-Phe5, D-Trp7'9, Leull"-substance P DA Jones', J Cummings', SP Langdon', AJ Maclellan', T Higgins2, E Rozengurt2 and JF Smyth' 'Imperial Cancer Research Fund, Medical Oncology Unit, Western General Hospital, Edinburgh EH4 2XU; 2Imperial Cancer Research Fund, PO Box 123, Lincoln's Inn Fields, London WC2A 3PX, UK. Summary Broad-spectrum neuropeptide growth factor antagonists, such as [D-Arg', D-Phe5, D-Trp7'9, Leu']substance P (antagonist D) and [Arg6, D-Trp7'9, NmePhe8]substance p(6- 11) (antagonist G), are currently being investigated as possible anti-tumour agents. These compounds are hoped to be effective against neuropeptide-driven cancers such as small-cell lung cancer. […] The in vitro metabolism of antagonist D has been characterised and the structures of two major metabolites have been elucidated by amino acid analysis and mass spectrometry. […] HPLC The HPLC system used consisted of two 510 HPLC pumps, a 712 WISP autosampler, a TCM column heater (all Waters, Northwich, UK) and a model 1046A fluorescence detector (Hewlett Packard, Walborn, Germany). […]

Q: For `O=S(=O)(F)Cc1ccccc1` [PMSF, phenylmethylsulfonylfluoride], which “PMSF concentration sufficient to cause almost complete arrest of the metabolism of antagonist D” value is on record?
A: 1.0 mM
